In patent US7893077B2, “Bisaryl-sulfonamides” (Amgen Inc., priority 2004, dated 2011):

These molecules were tested against T1, PPARγ (Homo sapiens, UniProt P37231) (assay: PPARγ ligand binding assay utilizing [3H]-BRL 49653 as the radioligand (filtration)). Settings: concentration required to reduce by 50% the specific binding of [3H]-BRL 49653.
T1 construct: made in house
T1 sequence (P37231 1-505): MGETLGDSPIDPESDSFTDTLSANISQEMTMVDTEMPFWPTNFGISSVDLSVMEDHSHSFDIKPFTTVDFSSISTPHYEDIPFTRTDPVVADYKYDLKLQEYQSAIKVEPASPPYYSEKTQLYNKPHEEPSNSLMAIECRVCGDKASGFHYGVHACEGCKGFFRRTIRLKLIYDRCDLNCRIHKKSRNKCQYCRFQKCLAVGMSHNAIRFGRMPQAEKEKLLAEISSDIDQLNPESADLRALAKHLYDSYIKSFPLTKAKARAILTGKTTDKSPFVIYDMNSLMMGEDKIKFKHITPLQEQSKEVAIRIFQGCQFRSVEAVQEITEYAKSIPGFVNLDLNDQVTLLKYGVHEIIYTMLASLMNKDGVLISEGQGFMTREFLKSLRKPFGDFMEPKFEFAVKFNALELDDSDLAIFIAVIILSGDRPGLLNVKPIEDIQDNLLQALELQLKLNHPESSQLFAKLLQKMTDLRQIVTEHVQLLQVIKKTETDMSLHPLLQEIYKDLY
Description: The compounds of the present invention can be evaluated for modulation of the PPARγ receptor using assays such as those described in Jiang, et al., Nature 391:82-86 (1998), Ricote, et al., Nature 391:79-82 (1998) and Lehmann, et al., J. Biol. Chem. 270(12): 12953-12956 (1995). Alternatively, the compounds can be evaluated for their ability to displace radiolabeled BRL 49653 from a PPARγ-GST fusion protein as follows:
PPARγ-GST fusion protein (prepared according to standard procedures), [^3H]-BRL 49653 having 50 Ci/mmol specific activity, Polyfiltronics Unifilter 350 filtration plate and glutathione-Sepharose® beads (from Pharmacia: washed twice with 10× binding buffer in which BSA and DTI can be left out).
Binding buffer (10 mM Tris-HCl, pH 8.0, 50 mM KCl, 10 mM DTT, 0.02% BSA and 0.0 1% NP-40) is added in 80-μL amounts to the wells of the filtration plate. The test compound is then added in 10 μL of DMSO. The PPARγ-GST fusion protein and radiolabeled BRL compound are premixed in binding buffer containing 10 mM DTT and added in 10-μL amounts to the wells of the plate to provide final concentrations of 1 µg/well of PPARγ-GST fusion protein and 10 nM [^3H]-BRL 49653 compound. The plate is incubated for 15 min. Glutathione-agarose bead is added in 50 μL of binding buffer, and the plate is vigorously shaken for one hour. The plate is washed four times with 200 μL/well of binding buffer (without BSA and DTT). The bottom of the plate is sealed and 200 μL/well of scintillation cocktail is added. The top of the plate is then sealed and the radioactivity is determined.
IC50 values are defined as the concentration of test compounds required to reduce by 50% the specific binding of [^3H]-BRL 49653 and are represented by (+)<30 μM; (++)<10 μM; (+++)<1 μM.

`CCCCCc1nc(NS(=O)(=O)c2ccc(Cl)cc2)ncc1Sc1ccc(S(=O)(=O)N2CCCCC2)cc1` [Compound 48, 4-Chloro-N-{4-pentyl-5-[4-(piperidine-1-sulfonyl) -phenylsulfanyl]-pyrimidin-2-yl}-benzenesulfonamide] and `Cc1nc(NS(=O)(=O)c2ccc(Cl)cc2)ncc1Sc1ccc(S(=O)(=O)N2CCCCC2)cc1` [Compound 51, 4-Chloro-N-{4-methyl-5-[4-(piperidine-1-sulfonyl) -phenylsulfanyl]-pyrimidin-2-yl}-benzenesulfonamide] cannot be ordered by IC50: less than 1000 nM for the first, less than 10000 nM for the second.

`Cc1nc(NS(=O)(=O)c2ccc(Cl)cc2Cl)ncc1Sc1ccc(S(=O)(=O)N2CCCCC2)cc1` [Compound 49, 2,4-Dichloro-N-{4-methyl-5-[4-(piperidine-1-sulfonyl) -phenylsulfanyl]-pyrimidin-2-yl}-benzenesulfonamide] and `Cc1nc(NS(=O)(=O)c2ccc(Cl)cc2Cl)ncc1Sc1ccc(S(=O)(=O)N2CCOCC2)cc1` [Compound 52, 2,4-Dichloro-N-{4-methyl-5-[4-(morpholine-4-sulfonyl) -phenylsulfanyl]-pyrimidin-2-yl}-benzenesulfonamide] cannot be ordered by IC50: less than 10000 nM for the first, less than 10000 nM for the second.

`Cc1nc(NS(=O)(=O)c2ccc(C(F)(F)F)cc2Cl)ncc1Sc1ccc(S(=O)(=O)N2CCCCC2)cc1` [Compound 50, 2-Chloro-N-{4-methyl-5-[4-(piperidine-1-sulfonyl) -phenylsulfanyl]-pyrimidin-2-yl}-4-trifluoromethyl-benzenesulfonamide] and `Cc1nc(NS(=O)(=O)c2ccc(C(F)(F)F)cc2Cl)ncc1Sc1ccc(S(=O)(=O)N2CCOCC2)cc1` [Compound 53, 2-Chloro-N-{4-methyl-5-[4-(morpholine-4-sulfonyl) -phenylsulfanyl]-pyrimidin-2-yl}-4-trifluoromethyl-benzenesulfonamide] cannot be ordered by IC50: less than 10000 nM for the first, less than 10000 nM for the second.

`Cc1nc(NS(=O)(=O)c2ccc(Cl)cc2Cl)ncc1Oc1ccc(S(=O)(=O)N2CCOCC2)cc1` [Compound 54, 2,4-Dichloro-N-{4-methyl-5-[4-(morpholine-4-sulfonyl) -phenoxy]-pyrimidin-2-yl}-benzenesulfonamide] and `Cc1nc(NS(=O)(=O)c2ccc(C(F)(F)F)cc2Cl)ncc1Oc1ccc(S(=O)(=O)N2CCOCC2)cc1` [Compound 55, 2-Chloro-N-{4-methyl-5-[4-(morpholine-4-sulfonyl) -phenoxy]-pyrimidin-2-yl}-4-trifluoromethyl-benzenesulfonamide] cannot be ordered by IC50: less than 30000 nM for the first, less than 10000 nM for the second.

`Cc1nc(NS(=O)(=O)c2ccc(Cl)cc2)ncc1Oc1ccc(S(=O)(=O)N2CCOCC2)cc1` [Compound 56, 4-Chloro-N-{4-methyl-5-[4-(morpholine-4-sulfonyl) -phenoxy]-pyrimidin-2-yl}-benzenesulfonamide] and `Cc1cc(NS(=O)(=O)c2ccc(C(F)(F)F)cc2Cl)ncc1Sc1ccc(S(=O)(=O)N2CCOCC2)cc1` [Compound 74, 2-Chloro-N-{4-methyl-5-[4-(morpholine-4-sulfonyl) -phenylsulfanyl]-pyridin-2-yl}-4-trifluoromethyl-benzenesulfonamide] cannot be ordered by IC50: less than 30000 nM for the first, less than 1000 nM for the second.

`Cc1nc(NS(=O)(=O)c2ccc(Cl)cc2Cl)ncc1Sc1ccc2ccccc2c1` [Compound 57, 2,4-Dichloro-N-[4-methyl-5-(naphthalen-2-ylsulfanyl)-pyrimidin-2-yl]-benzenesulfonamide] and `Cc1nc(NS(=O)(=O)c2ccc(C(F)(F)F)cc2Cl)ncc1Sc1ccc2ccccc2c1` [Compound 59, 2-Chloro-N-[4-methyl-5-(naphthalen-2-ylsulfanyl)-pyrimidin-2-yl]-4-trifluoromethyl-benzenesulfonamide] cannot be ordered by IC50: less than 10000 nM for the first, less than 10000 nM for the second.

`Cc1nc(NS(=O)(=O)c2ccc(Cl)cc2Cl)ncc1Oc1ccc(Cl)c(Cl)c1` [Compound 60, 2,4-Dichloro-N-[5-(3,4-dichloro-phenoxy)-4-methyl-pyrimidin-2-yl]-benzenesulfonamide] and `Cc1cc(NS(=O)(=O)c2ccc(Cl)cc2Cl)ncc1Sc1ccc(S(=O)(=O)N2CCCCC2)cc1` [Compound 63, 2,4-Dichloro-N-{4-methyl-5-[4-(piperidine-1-sulfonyl) -phenylsulfanyl]-pyridin-2-yl}-benzenesulfonamide] cannot be ordered by IC50: less than 10000 nM for the first, less than 1000 nM for the second.

`Cc1cc(S(=O)(=O)Nc2ccc(Sc3ccc(S(=O)(=O)N4CCCCC4)cc3)c(C)n2)c(Cl)cc1Cl` [Compound 61, 2,4-Dichloro-5-methyl-N-{6-methyl-5-[4-(piperidine-1-sulfonyl)-phenylsulfanyl]-pyridin-2-yl}-benzenesulfonamide] and `Cc1cc(S(=O)(=O)Nc2cc(C)c(Sc3ccc(S(=O)(=O)N4CCCCC4)cc3)cn2)c(Cl)cc1Cl` [Compound 62, 2,4-Dichloro-5-methyl-N-{4-methyl-5-[4-(piperidine-1-sulfonyl)-phenylsulfanyl]-pyridin-2-yl}-benzenesulfonamide] cannot be ordered by IC50: less than 1000 nM for the first, less than 1000 nM for the second.

`Cc1cc(NS(=O)(=O)c2ccc(C(F)(F)F)cc2Cl)ncc1Sc1ccc(S(=O)(=O)N2CCCCC2)cc1` [Compound 64, 2-Chloro-N-{4-methyl-5-[4-(piperidine-1-sulfonyl) -phenylsulfanyl]-pyridin-2-yl}-4-trifluoromethyl-benzenesulfonamide] and `Cc1nc(NS(=O)(=O)c2ccc(C(F)(F)F)cc2Cl)ccc1Sc1ccc(S(=O)(=O)N2CCCCC2)cc1` [Compound 66, 2-Chloro-N-{6-methyl-5-[4-(piperidine-1-sulfonyl) -phenylsulfanyl]-pyridin-2-yl}-4-trifluoromethyl-benzenesulfonamide] cannot be ordered by IC50: less than 1000 nM for the first, less than 1000 nM for the second.

`Cc1nc(NS(=O)(=O)c2ccc(Cl)cc2Cl)ccc1Sc1ccc(S(=O)(=O)N2CCCCC2)cc1` [Compound 65, 2,4-Dichloro-N-{6-methyl-5-[4-(piperidine-1-sulfonyl) -phenylsulfanyl]-pyridin-2-yl}-benzenesulfonamide] and `O=C(O)c1nc(NS(=O)(=O)c2ccc(Cl)cc2Cl)ccc1Sc1ccc(S(=O)(=O)N2CCCCC2)cc1` [Compound 71, 6-(2,4-Dichloro-benzenesulfonylamino)-3-[4-(piperidine-1-sulfonyl)-phenylsulfanyl]-pyridine-2-carboxylic acid] cannot be ordered by IC50: less than 1000 nM for the first, less than 10000 nM for the second.

`Cc1cc(S(=O)(=O)Nc2ccc(Sc3ccc(S(=O)(=O)N4CCCCC4)cc3)cn2)c(Cl)cc1Cl` [Compound 67, 2,4-Dichloro-5-methyl-N-{5-[4-(piperidine-1-sulfonyl) -phenylsulfanyl]-pyridin-2-yl}-benzenesulfonamide] and `O=S(=O)(Nc1ccc(Sc2ccc(S(=O)(=O)N3CCCCC3)cc2)cn1)c1ccc(Cl)cc1Cl` [Compound 68, 2,4-Dichloro-N-{5-[4-(piperidine-1-sulfonyl)-phenylsulfanyl]-pyridin-2-yl}-benzenesulfonamide] cannot be ordered by IC50: less than 1000 nM for the first, less than 1000 nM for the second.

`O=S(=O)(Nc1ccc(Sc2ccc(S(=O)(=O)N3CCCCC3)cc2)cn1)c1ccc(C(F)(F)F)cc1Cl` [Compound 69, 2-Chloro-N-{5-[4-(piperidine-1-sulfonyl)-phenylsulfanyl]-pyridin-2-yl}-4-trifluoromethyl-benzenesulfonamide] and `COC(=O)c1nc(NS(=O)(=O)c2ccc(Cl)cc2Cl)ccc1Sc1ccc(S(=O)(=O)N2CCCCC2)cc1` [Compound 70, 6-(2,4-Dichloro-benzenesulfonylamino)-3-[4-(piperidine-1-sulfonyl)-phenylsulfanyl]-pyridine-2-carboxylic acid methyl ester] cannot be ordered by IC50: less than 1000 nM for the first, less than 1000 nM for the second.

`CON(C)C(=O)c1nc(NS(=O)(=O)c2ccc(Cl)cc2Cl)ccc1Sc1ccc(S(=O)(=O)N2CCCCC2)cc1` [Compound 72, 6-(2,4-Dichloro-benzenesulfonylamino)-3-[4-(piperidine-1-sulfonyl)-phenylsulfanyl]-pyridine-2-carboxylic acid methoxy-methyl-amide] and `CCCC(=O)c1nc(NS(=O)(=O)c2ccc(Cl)cc2Cl)ccc1Sc1ccc(S(=O)(=O)N2CCCCC2)cc1` [Compound 73, N-{6-Butyryl-5-[4-(piperidine-1-sulfonyl)-phenylsulfanyl]-pyridin-2-yl}-2,4-dichloro-benzenesulfonamide] cannot be ordered by IC50: less than 1000 nM for the first, less than 1000 nM for the second.
